{"source": "patent US20090068646A1", "about": "“METHODS AND KITS FOR DETECTING MUTATIONS” (PROMEGA CORPORATION, priority 2004, published 2009)", "format_in_all_cases": "in vivo, C75BL/6 mice", "key": {"mononucleotide repeats [1]": {"system": "mononucleotide repeats", "details": "50 mg/kg intraperitoneal, liver DNA", "experimental": "(§1) Treatment of mice used in paraquat studies. […] mice were housed and inbred at the University of Wisconsin, with an average life span 30 months. Four groups of three mice were included in the study: 5-month old mice (young control or YC); 5-month old mice treated with paraquat; 24-month old mice (old age); and 24-month old mice treated with paraquat. Paraquat-treated animals received a single intraperitoneal injection of 50 mg/kg body weight dissolved in PBS 24 hours after their last feeding. Each mouse was sacrificed by cervical dislocation.\n(§2) Tissue Preparation, DNA Extraction and Quantification. The entire liver from each mouse was dissected, washed with PBS, placed in a 1.5 ml Ependorf tube, snap frozen in liquid nitrogen, and stored at −80° C. DNA was prepared from the mouse liver tissue by using the DNA-IQ Tissue and Hair Extraction Kit (Promega Corporation, Madison, Wis.) and was quantified using the PicoGreen dsDNA Quantitative Kit (Molecular Probes, Eugene, Oreg.) following manufacturers protocols.\nDetection of Mutations in Microsatellites using small pool PCR. […] The stability of four short mononucleotide repeats (mBAT-24, mBAT-26, mBat-30, mBAT-37) and three extended mononucleotide repeats (mBAT-59, mBAT-64 and mBAT-67) were evaluated.\nSP-PCR was performed for mutation analysis using 1-2 copies of genomic DNA (6-12 pg). PCR cycles and conditions are the same as described above except that the annealing temperature was 58° C.\nIdentification of PCR Products. Separation and detection of amplified fragments was performed on an ABI PRISM® 3100 Genetic Analyzer following the manufacturer's protocol (Applied Biosystems, Foster City, Calif.). Data was analyzed with the GeneScan and Genotyper computer software packages (Applied Biosystems).\nStatistical Analysis. Statistical analysis was done using the statistical Package Sigma Stat version 3, where P value was determined by using one-way ANOVA for each specific group, using Holm-Sidak method did comparisons between the groups."}, "mtDNA": {"system": "mtDNA", "details": "old age paraquat-treated group, three mice", "experimental": "as §1, §2\nmtDNA Deletion Detection. Based on the mouse mtDNA sequence, four fluorescence labeled primer pairs were designed to detect both wildtype sequences and mtDNA deletions.\nPCR Conditions. […]\nIdentification of PCR Products. […] Data was analyzed with the GeneScan and Genotyper computer software packages (Applied Biosystems)."}, "mononucleotide repeats [2]": {"system": "mononucleotide repeats", "details": "for Mutation Freq / # Mutants: 50 mg/kg intraperitoneal, liver DNA"}, "[3]": {"details": "marker mBat-24, Old w/Paraquat (24-month old mice)"}, "[4]": {"details": "marker mBat-26, Young w/Paraquat (5-month old mice)"}, "[5]": {"details": "marker mBat-30, Old w/Paraquat (24-month old mice)"}, "[6]": {"details": "marker mBat-30, Young w/Paraquat (5-month old mice)"}, "[7]": {"details": "marker mBat-59, Old w/Paraquat (24-month old mice)"}, "[8]": {"details": "marker mBat-64, Young w/Paraquat (5-month old mice)"}, "[9]": {"details": "marker mBat-67, Young w/Paraquat (5-month old mice)"}, "[10]": {"details": "marker mBat-24, Young w/Paraquat (5-month old mice)"}, "[11]": {"details": "marker mBat-26, Old w/Paraquat (24-month old mice)"}, "[12]": {"details": "marker mBat-37, Old w/Paraquat (24-month old mice)"}, "[13]": {"details": "marker mBat-37, Young w/Paraquat (5-month old mice)"}, "[14]": {"details": "marker mBat-49, Old w/Paraquat (24-month old mice)"}, "[15]": {"details": "marker mBat-51a, Old w/Paraquat (24-month old mice)"}, "[16]": {"details": "marker mBat-51b, Old w/Paraquat (24-month old mice)"}, "[17]": {"details": "marker mBat-52, Old w/Paraquat (24-month old mice)"}, "[18]": {"details": "marker mBat-59, Young w/Paraquat (5-month old mice)"}, "[19]": {"details": "marker mBat-61a, Old w/Paraquat (24-month old mice)"}, "[20]": {"details": "marker mBat-64, Old w/Paraquat (24-month old mice)"}, "[21]": {"details": "marker mBat-66, Old w/Paraquat (24-month old mice)"}, "[22]": {"details": "marker mBat-66, Young w/Paraquat (5-month old mice)"}, "[23]": {"details": "marker mBat-67, Old w/Paraquat (24-month old mice)"}, "[24]": {"details": "paraquat-treated old age group, loci mBAT-59, mBAT-64, mBAT-66 or mBAT-67 combined"}}, "note": "Read-outs that look alike come from different tables or passages of the source.", "data": [{"smiles": "C[n+]1ccc(-c2cc[n+](C)cc2)cc1", "note": "[Paraquat]", "values": [{"measurement": "# Mutants", "setting": "mononucleotide repeats [1]; [3]", "result": 0}, {"measurement": "Mutation Freq", "setting": "mononucleotide repeats [1]; [4]", "result": 0.000}, {"measurement": "Mutation Freq", "setting": "mononucleotide repeats [1]; [5]", "result": 0.000}, {"measurement": "# Mutants", "setting": "mononucleotide repeats [1]; [6]", "result": 0}, {"measurement": "# Mutants", "setting": "mononucleotide repeats [1]; [7]", "result": 6}, {"measurement": "Mutation Freq", "setting": "mononucleotide repeats [1]; [8]", "result": 0}, {"measurement": "Mutation Freq", "setting": "mononucleotide repeats [1]; [9]", "result": 0}, {"measurement": "mice showing Δ-mtDNA4977", "setting": "mtDNA", "result": "All three"}, {"measurement": "Mutation Freq", "setting": "mononucleotide repeats [2]; [3]", "result": 0.000}, {"measurement": "# Mutants", "setting": "mononucleotide repeats [2]; [10]", "result": 1}, {"measurement": "Mutation Freq", "setting": "mononucleotide repeats [2]; [10]", "result": 0.002}, {"measurement": "# Mutants", "setting": "mononucleotide repeats [2]; [11]", "result": 0}, {"measurement": "Mutation Freq", "setting": "mononucleotide repeats [2]; [11]", "result": 0.000}, {"measurement": "# Mutants", "setting": "mononucleotide repeats [2]; [4]", "result": 0}, {"measurement": "# Mutants", "setting": "mononucleotide repeats [2]; [5]", "result": 0}, {"measurement": "Mutation Freq", "setting": "mononucleotide repeats [2]; [6]", "result": 0.000}, {"measurement": "# Mutants", "setting": "mononucleotide repeats [2]; [12]", "result": 0}, {"measurement": "Mutation Freq", "setting": "mononucleotide repeats [2]; [12]", "result": 0.000}, {"measurement": "# Mutants", "setting": "mononucleotide repeats [2]; [13]", "result": 1}, {"measurement": "Mutation Freq", "setting": "mononucleotide repeats [2]; [13]", "result": 0.001}, {"measurement": "# Mutants", "setting": "mononucleotide repeats [2]; [14]", "result": 0}, {"measurement": "Mutation Freq", "setting": "mononucleotide repeats [2]; [14]", "result": 0.000}, {"measurement": "# Mutants", "setting": "mononucleotide repeats [2]; [15]", "result": 0}, {"measurement": "Mutation Freq", "setting": "mononucleotide repeats [2]; [15]", "result": 0.000}, {"measurement": "# Mutants", "setting": "mononucleotide repeats [2]; [16]", "result": 0}, {"measurement": "Mutation Freq", "setting": "mononucleotide repeats [2]; [16]", "result": 0.000}, {"measurement": "# Mutants", "setting": "mononucleotide repeats [2]; [17]", "result": 0}, {"measurement": "Mutation Freq", "setting": "mononucleotide repeats [2]; [17]", "result": 0.000}, {"measurement": "Mutation Freq", "setting": "mononucleotide repeats [2]; [7]", "result": 0.013}, {"measurement": "# Mutants", "setting": "mononucleotide repeats [2]; [18]", "result": 4}, {"measurement": "Mutation Freq", "setting": "mononucleotide repeats [2]; [18]", "result": 0}, {"measurement": "# Mutants", "setting": "mononucleotide repeats [2]; [19]", "result": 2}, {"measurement": "Mutation Freq", "setting": "mononucleotide repeats [2]; [19]", "result": 0.005}, {"measurement": "# Mutants", "setting": "mononucleotide repeats [2]; [20]", "result": 8}, {"measurement": "Mutation Freq", "setting": "mononucleotide repeats [2]; [20]", "result": 0.019}, {"measurement": "# Mutants", "setting": "mononucleotide repeats [2]; [8]", "result": 1}, {"measurement": "# Mutants", "setting": "mononucleotide repeats [2]; [21]", "result": 8}, {"measurement": "Mutation Freq", "setting": "mononucleotide repeats [2]; [21]", "result": 0.018}, {"measurement": "# Mutants", "setting": "mononucleotide repeats [2]; [22]", "result": 3}, {"measurement": "Mutation Freq", "setting": "mononucleotide repeats [2]; [22]", "result": 0}, {"measurement": "# Mutants", "setting": "mononucleotide repeats [2]; [23]", "result": 20}, {"measurement": "Mutation Freq", "setting": "mononucleotide repeats [2]; [23]", "result": 0.051}, {"measurement": "# Mutants", "setting": "mononucleotide repeats [2]; [9]", "result": 1}, {"measurement": "mutations detected in loci mBAT-24, mBAT-26, mBat-30, or mBAT-37", "setting": "mononucleotide repeats [2]; old paraquat-treated group, short mononucleotide repeats combined", "result": "no mutations out of 1608 alleles"}, {"measurement": "mutant alleles / alleles assayed", "setting": "mononucleotide repeats [2]; [24]", "result": "25/1649"}, {"measurement": "mutations in mononucleotide repeat alleles assayed", "setting": "mononucleotide repeats [2]; [24]", "result": "over 1.8%"}]}]}
